# Measurements: US8062995B2, “Dioxazine-substituted arylamides” (Bayer CropScience AG, priority 2005, dated 2011)
# How the values were obtained:
# [1] = logP determination by HPLC (reversed-phase C18), EEC Directive 79/831 Annex V.A8; assay type: physicochemical; details: HPLC reversed-phase C18, 43° C., acidic range pH 2.7
# [2] = system: larvae of the mustard beetle (Phaedon cochleariae); test: Phaedon test (sprayed Chinese cabbage discs); assay type: in vivo; details: for Kill rate after 7d in %: 100 g/ha
# Method in brief: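 Compound formulated in acetone/DMF with alkylaryl polyglycol ether emulsifier, diluted in emulsifier-containing water and sprayed onto Chinese cabbage (Brassica pekinensis) leaf discs. After drying, discs infested with Phaedon cochleariae larvae; % kill scored after set time (100% = all larvae dead, 0% = none).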
# [3] = system: green peach aphid (Myzus persicae); test: Myzus test (MYZUPE spray treatment); assay type: in vivo; details: for Kill rate after 5d in %: 100 g/ha, spray treatment
# Experimental: Myzus Test (MYZUPE Spray Treatment) Solvents: 78 parts by weight of acetone • • 1.5 parts by weight of dimethylformamide Emulsifier: 0.5 part by weight of alkylaryl polyglycol ether To produce a suitable preparation of active compound, 1 part by weight of active compound is mixed with the stated amounts of solvents and emulsifier and the concentrate is diluted with emulsifier-containing water to the desired concentration. Discs of Chinese cabbage (Brassica pekinensis), which are infested by all stages of the green peach aphid (Myzus persicae) are sprayed with an active compound preparation of the desired concentration. After the desired period of time, the activity in % is determined. 100% means that all aphids have been killed; 0% means that none of the aphids have been killed.
# [4] = system: caterpillars of the army worm (Spodoptera frugiperda); test: Spodoptera frugiperda test (SPODFR spray treatment); assay type: in vivo; details: for Kill rate after 7d in %: 100 g/ha, spray treatment
# Method in brief: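 Compound formulated in acetone/DMF with alkylaryl polyglycol ether emulsifier, diluted in emulsifier-containing water and sprayed on maize leaf discs; after drying, discs infested with Spodoptera frugiperda caterpillars. Mortality (%) scored after a set period, 100% meaning all caterpillars killed.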
# [5] = system: caterpillars of the army worm (Spodoptera exigua); test: Spodoptera exigua test (leaf dip); assay type: in vivo
# Experimental: (§1) Spodoptera exigua Test Solvent: 7 parts by weight of dimethylformamide Emulsifier: 2 parts by weight of alkylaryl polyglycol ether To produce a suitable preparation of active compound, 1 part by weight of active compound is mixed with the stated amounts of solvent and emulsifier and the concentrate is diluted with emulsifier-containing water to the desired concentration. Cabbage leaves (Brassica oleracea) are treated by being dipped into the active compound preparation of the desired concentration and populated with caterpillars of the army worm (Spodoptera exigua) while the leaves are still moist. After the desired period of time, the kill in % is determined. 100% means that all caterpillars have been killed; 0% means that none of the caterpillars have been killed.
# [6] = system: caterpillars of the cotton bollworm (Heliothis armigera); test: Heliothis armigera test (leaf dip); assay type: in vivo
# Method in brief: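 Compound was formulated in dimethylformamide with alkylaryl polyglycol ether emulsifier and diluted in emulsifier-containing water. Soya bean leaves were dipped in the preparation and populated with Heliothis armigera caterpillars while still moist. Kill (%) was scored after the desired period.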
# [7] = system: caterpillars of the diamondback moth (Plutella xylostella); test: Plutella test (leaf dip); assay type: in vivo
# Experimental: as §1, with “Plutella” for “Spodoptera exigua”, “Cabbages” for “Cabbage”, “diamondback moth (Plutella xylostella)” for “army worm (Spodoptera exigua)”
# [8] = system: green peach aphid (Myzus persicae); test: Myzus persicae test; systemic treatment; assay type: in vivo; details: for Kill rate after 6d in %: 20 ppm, systemic treatment
# Experimental: Myzus persicae Test; Systemic Treatment Solvent: 7 parts by weight of dimethylformamide Emulsifier: 2 parts by weight of alkylaryl polyglycol ether To produce a suitable preparation of active compound, 1 part by weight of active compound is mixed with the stated amounts of solvent and emulsifier and the concentrate is diluted with water to the desired concentration. The active compound preparation is mixed with water. The stated concentration refers to the amount of active compound per volume unit of water (mg/l=ppm). The treated water is filled into vessels with a pea plant (Pisum sativum) which is then infected with the green peach aphid (Myzus persicae). After the desired period of time, the kill in % is determined. 100% means that all aphids have been killed; 0% means that none of the aphids have been killed.
# [9] = system: green peach aphid (Myzus persicae); test: Myzus test; oral; assay type: in vivo
# Experimental: Myzus Test; Oral Solvent: 80 parts by weight of acetone To produce a suitable preparation of active compound, 1 part by weight of active compound is mixed with the stated amounts of solvent and the concentrate is diluted with water to the desired concentration. Vessels are populated with all stages of the green peach aphid (Myzus persicae) which are treated by sucking the active compound preparation of the desired concentration. After the desired period of time, the activity in % is determined. 100% means that all aphids have been killed; 0% means that none of the aphids have been killed.
# [10] = system: Spodoptera frugiperda larvae; test: Spodoptera frugiperda test (treatment by watering); assay type: in vivo; details: 20 ppm; 14 d; treatment by watering
# Method in brief: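 Compound formulated in dimethylformamide with alkylaryl polyglycol ether emulsifier and diluted with water to the desired concentration. Maize plants are watered with the preparation, then infested with Spodoptera frugiperda larvae. After the set period, % larval kill is scored (100% = all killed, 0% = none).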
# [11] = system: Spodoptera exigua, resistant strain; test: Spodoptera exigua test; resistant strain; assay type: in vivo; details: for Kill rate after 7d in %: resistant strain
# Experimental: Spodoptera exigua Test; Resistant Strain
# Solvent: 7 parts by weight of dimethylformamide
# Emulsifier: 2 parts by weight of alkylaryl polyglycol ether
# To produce a suitable preparation of active compound, 1 part by weight of active compound is mixed with the stated amounts of solvent and emulsifier and the concentrate is diluted with emulsifier-containing water to the desired concentration.
# Cabbage leaves (Brassica oleracea) are treated by being dipped into the active compound preparation of the desired concentration and populated with caterpillars of the army worm (Spodoptera exigua, resistant strain) while the leaves are still moist.
# After the desired period of time, the kill in % is determined. 100% means that all caterpillars have been killed; 0% means that none of the caterpillars have been killed.
# [12] = system: cotton aphid (Aphis gossypii); test: Aphis gossypii test (leaf dip); assay type: in vivo; details: for Kill rate after 6d in %: 100 ppm
# Experimental: as §1, with “Aphis gossypii” for “Spodoptera exigua”, “Cotton” for “Cabbage”, “(Gossypium hirsutum) which are heavily infested by the cotton aphid (Aphis gossypii)” for “(Brassica oleracea)”, “concentration.” for “concentration and populated with caterpillars of the army worm (Spodoptera exigua) while the leaves are still moist.”, “aphids” for “caterpillars”
structure (smiles),measurement,setting,value
Cc1cccc(C2=NOCCN2)c1NC(=O)c1cc(C(F)(F)F)nn1-c1ncccc1Cl [Example I-1-16],logP,[1],1.98
same,activity in the Phaedon test (in words),[2],good activity
same,Kill rate after 7d in %,[2],100%
same,"activity in the Myzus test, spray treatment (in words)",[3],good activity
same,Kill rate after 5d in %,[3],100%
same,"activity in the Spodoptera frugiperda test, spray treatment (in words)",[4],good activity
same,Kill rate after 7d in %,[4],100%
same,activity in the Spodoptera exigua test (in words),[5],good activity
same,Kill rate after 7d in %,[5]; 20 ppm,100%
same,activity in the Heliothis armigera test (in words),[6],good activity
same,Kill rate after 7d in %,[6]; 20 ppm,100%
same,activity in the Plutella test (in words),[7],good activity
same,Kill rate after 7d in %,[7]; 100 ppm,100%
same,"activity in the Myzus persicae test, systemic treatment (in words)",[8],good activity
same,Kill rate after 6d in %,[8],100%
same,"activity in the Myzus test, oral (in words)",[9],good activity
same,Kill rate after 5d in %,"[9]; 100 ppm, 5 d, oral",100%
Cc1cc(Cl)cc(C2=NOCCN2)c1NC(=O)c1cc(C(F)(F)F)nn1-c1ncccc1Cl [Example I-1-18],logP,[1],2.70
same,activity in the Phaedon test (in words),[2],good activity
same,Kill rate after 7d in %,[2],100%
same,"activity in the Myzus test, spray treatment (in words)",[3],good activity
same,Kill rate after 5d in %,[3],100%
same,"activity in the Spodoptera frugiperda test, spray treatment (in words)",[4],good activity
same,Kill rate after 7d in %,[4],100%
same,Kill rate after 14d in %,[10],95%
same,activity in the Spodoptera exigua test (in words),[5],good activity
same,Kill rate after 7d in %,[5]; 100 ppm,100%
same,activity in the Heliothis armigera test (in words),[6],good activity
same,Kill rate after 7d in %,[6]; 20 ppm,100%
same,"activity in the Spodoptera exigua test, resistant strain (in words)",[11],good activity
same,Kill rate after 7d in %,[11]; 100 ppm,100%
same,activity in the Plutella test (in words),[7],good activity
same,Kill rate after 7d in %,[7]; 20 ppm,100%
same,"activity in the Myzus persicae test, systemic treatment (in words)",[8],good activity
same,Kill rate after 6d in %,[8],95%
Cc1cc(Cl)cc(C2=NOCCN2)c1NC(=O)c1cc(Br)nn1-c1ncccc1Cl [Example I-1-19],logP,[1],2.25
same,activity in the Phaedon test (in words),[2],good activity
same,Kill rate after 7d in %,[2],100%
same,"activity in the Myzus test, spray treatment (in words)",[3],good activity
same,Kill rate after 5d in %,[3],90%
same,"activity in the Spodoptera frugiperda test, spray treatment (in words)",[4],good activity
same,Kill rate after 7d in %,[4],100%
same,Kill rate after 14d in %,[10],95%
same,activity in the Spodoptera exigua test (in words),[5],good activity
same,Kill rate after 7d in %,[5]; 4 ppm,80%
same,activity in the Heliothis armigera test (in words),[6],good activity
same,Kill rate after 7d in %,[6]; 4 ppm,100%
same,"activity in the Spodoptera exigua test, resistant strain (in words)",[11],good activity
same,Kill rate after 7d in %,[11]; 20 ppm,100%
same,activity in the Plutella test (in words),[7],good activity
same,Kill rate after 7d in %,[7]; 0.8 ppm,100%
same,"activity in the Myzus persicae test, systemic treatment (in words)",[8],good activity
same,Kill rate after 6d in %,[8],90%
same,activity in the Aphis gossypii test (in words),[12],good activity
same,Kill rate after 6d in %,[12],80%
Cc1cc(Cl)cc(C2=NOCCN2)c1NC(=O)c1cc(Cl)nn1-c1ncccc1Cl [Example I-1-20],logP,[1],2.25
same,activity in the Phaedon test (in words),[2],good activity
same,Kill rate after 7d in %,[2],100%
same,"activity in the Myzus test, spray treatment (in words)",[3],good activity
same,Kill rate after 5d in %,[3],100%
same,"activity in the Spodoptera frugiperda test, spray treatment (in words)",[4],good activity
same,Kill rate after 7d in %,[4],100%
same,Kill rate after 14d in %,[10],95%
same,activity in the Spodoptera exigua test (in words),[5],good activity
same,Kill rate after 7d in %,[5]; 4 ppm,100%
same,activity in the Heliothis armigera test (in words),[6],good activity
same,Kill rate after 7d in %,[6]; 4 ppm,100%
same,activity in the Plutella test (in words),[7],good activity
same,Kill rate after 7d in %,[7]; 4 ppm,100%
same,activity in the Aphis gossypii test (in words),[12],good activity
same,Kill rate after 6d in %,[12],80%
